# Measured values published in patent US20170165253A1, “TREATMENT OF SEXUAL DYSFUNCTION AND FOR IMPROVED SEXUAL QUALITY OF LIFE” (ReJoy, priority 2015, published 2017).
# Values joined by “and” are separate entries in the source; they are usually repeats but may differ in a detail not shown here. Equal values may be shown once. Where a name gives a salt, the structure may show the parent alone.
# Legend:
# [1] = IVRT skin penetration, synthetic skin model; format: in vitro ADME; conditions: 10% solution
# From the text: Transdermal penetration of a particular formulation can be assessed with in vitro release testing (IVRT) using a Franz cell. See Bartosova and Bajagar, “Transdermal Drug Delivery In Vitro Using Diffusion Cells,” Current Medicinal Chemistry, 2012, 19, 4671-4677.
# In order to determine the dermal absorption and bioavailability of topically applied 10% Phenylephrine Hydrochloride solution, we used an IVRT experimental setup with both skin excised from pig ears and a synthetic skin model (Maine Manufacturing, LLC, Me., USA).
# nipple areole complex [2] = experiment: Pilot dose study of nipple erection and sensitivity, topical phenylephrine (Example 3); format: in vivo, human; conditions: 10% topical solution
# Experimental: A pilot study was conducted to assess the dosage of topical phenylephrine solution required to elicit nipple erection and sensitivity. […] Two subjects were post-menopausal and the reminder three were pre-menopausal. Subjects were not hypertensive, pregnant or breastfeeding. Three formulations were used: Formula A: 0% topical phenylephrine hydrochloride solution; Formula B: 5% topical phenylephrine hydrochloride solution; Formula C: 10% topical phenylephrine hydrochloride solution.
# The study was conducted over 3 days. On day 1, subjects were instructed to apply on the left nipple Formula A and on the right nipple Formula B. On day 2, subjects were instructed to apply on the left nipple Formula A and on the right nipple Formula C. On day 3, subjects were instructed to apply on the left nipple Formula B and on the right nipple Formula C. 0.1 mL of each formula was applied with a cotton swab to the nipple areole complex. […] With the 10% topical phenylephrine solution, response in nipple erection and sensitivity was obtained in less than 30 minutes and lasted for 3-4 hours.
# nipple-areola complex = experiment: Phenylephrine FSFI orgasm domain study (Example 8); format: in vivo, human
# Experimental: Phenylephrine HCl 15%. A study was conducted to evaluate the effect of Phenylephrine HCl 15% on the FSFI orgasm domain. Three premenopausal subjects participated in the study. Subjects were not hypertensive, pregnant or breastfeeding.
# nipple areola complex = experiment: Iontophoresis patch erection of the nipple areola complex (Example 10); format: in vivo, human; conditions: 1.3 mL 1% solution, iontophoresis patch 1 hour
# Experimental: In the following experiment, a commercially available iontophoresis patch was used to erect the nipple of a subject.
# 1. The nipple and areola of each breast were prepared by cleaning with a sterile alcohol pad.
# 2. Two Inotopatch 80 (Travanti Medical) patches were removed from packaging.
# 3. The positive electrode of the first patch was filled with 1.3 mL of a 1% phenylephrine hydrochloride.
# 4. The negative electrode of the first patch was filled with 1.3 mL of a saline solution.
# 5. The positive electrode (approximately 1.5 cm diameter) containing the drug was placed over the nipple areola complex of the right breast; the negative electrode was placed on the adjacent breast tissue outside the nipple areola complex of the right breast.
# 6. Steps 2-5 were repeated, however, both electrodes of the Inotopatch 80 were filled with 1.3 mL of saline. The patch was applied to left breast following the procedure of step 5.
# 7. The patches were left in place (adhesive) for 1 hour (dosage=[…], 80 mA/min).
# 8. After 1 hour the patches were removed.
# [3] = Heart rate, blood pressure and adverse events in Example 12; format: in vivo, human; conditions: for Delta HR t = 15: 15 minutes; for Delta HR t = 15 / Delta HR t = 30 / Delta HR t = 60: single patients, Hydrochloride; for Delta HR t = 30: 30 minutes; for Delta HR t = 60: 60 minutes
# Experimental: 20 healthy, pre-menopausal females were recruited to the study. Subjects were instructed to apply either 4 or 6 drops of an investigational drug to each nipple areola complex. Baseline blood-pressure, heart rate, nipple erection, nipple sensitivity, genital lubrication and arousal were measured and recorded. […]
# [4] = IVRT Franz cell skin penetration, excised pig skin; format: in vitro ADME
# nipple areole complex [5] = experiment: Pilot study in female sexual dysfunction, SSE by Sexual Activity Record (Example 4)
# [6] = Phenylephrine HCl 15%, single subjects, Hydrochloride
compound,measurement,setting,value
"CNC[C@H](O)c1cccc(O)c1 [Phenylephrine HCl, Phenylephrine Hydrochloride]",maximal skin absorption in 24 hours,[1],≤ 83%
same,duration of response in nipple erection and sensitivity,nipple areole complex [2],3 to 4 h
same,time to response in nipple erection and sensitivity,nipple areole complex [2],less than 30 minutes
same,adverse events,nipple-areola complex; 15%,No adverse events were reported
same,subjects with increased sensitivity and nipple erection,"nipple-areola complex; 15%, subjects without response to 10%",3 of 5
same,"FSFI Scale How Difficult to Reach Orgasm, Intervention",nipple-areola complex; [6],5 (2×) and 4
same,"FSFI Scale How Often Orgasm was Reached, Intervention",nipple-areola complex; [6],5 and 4 (2×)
same,nipple sensitivity past application,nipple-areola complex; report,≤ 12 h
same,nipple sensitivity,nipple areola complex; one subject,increased sensitivity in the right nipple compared to the left nipple
same,nipple erection,nipple areola complex; right nipple vs saline left,visibly erect
same,Delta HR t = 15,"[3]; 10% Arm C, four drops (0.114 mL) per NAC",−3 (2×) and −10 and 3 (4×) and −7 and 0 (3×) and −1 (2×) and −2 (3×) and 4 and −9 and 6 and −5
same,Delta HR t = 30,"[3]; 10% Arm C, four drops",−2 and −12 and 13 and −7 (3×) and −3 (2×) and −1 (2×) and 5 and 7 (2×) and 3 (2×) and −4 (3×) and 0 (2×)
same,Delta HR t = 60,"[3]; 10% Arm C, four drops",−2 (2×) and −7 and −1 (3×) and −6 (2×) and −4 (4×) and 5 (2×) and −8 and 7 and 2 (2×) and −9 and −10
same,Delta HR t = 15,"[3]; 15% (Arm D), four drops",−9 (4×) and 1 (2×) and 0 and −4 (2×) and −6 and 4 and −15 and −8 and −5 and −3 (3×) and 6 and −1 and −2
same,Delta HR t = 30,"[3]; 15% (Arm D), four drops",−14 and 4 (2×) and 0 and −1 and −2 (3×) and 6 and −10 (2×) and −4 and −5 and 2 and −12 and 8 and 5 and 1 and 3 and −8
same,Delta HR t = 60,"[3]; 15% (Arm D), four drops",−16 and 4 and −6 (3×) and −2 (4×) and −4 and −7 and −9 and 1 and −3 (2×) and 0 (2×) and −10 and 2 and −11
same,Delta HR t = 15,"[3]; 20% (Arm B), four drops",−15 and 3 and −2 (2×) and −1 (2×) and −6 (2×) and 2 and −4 (2×) and −10 and 6 and 1 and −7 and −5 and 10 and −3 and 7 and 0
same,Delta HR t = 30,"[3]; 20% (Arm B), four drops",−20 and 4 and −6 and −14 and −3 (2×) and 7 (2×) and 1 (3×) and −1 (2×) and −7 and 10 (2×) and −9 (2×) and 3 and 6
same,Delta HR t = 60,"[3]; 20% (Arm B), four drops",−21 (2×) and 3 and 1 and −13 and 6 and −1 and 0 (2×) and −8 and −6 (2×) and 4 (2×) and −3 (2×) and −4 and 11 and 9 and −2
same,adverse event,[3]; 20% arm,one adverse event (nipple pain)
same,changes in blood pressure or heart rate,"[3]; all arms, 10-20%",no changes in blood pressure or heart rate
same,total absorption over 24 hours,"[4]; 0.1 mL of 10% solution per NAC, both NAC",16.6 mg
same,less systemic exposure compared to the oral OTC drug,[4]; topical dosage vs one 10 mg oral tablet every 4 hours,approximately 45%
same,Number of SSE (1 week),"nipple areole complex [5]; 0.1 mL 10% solution per NAC about 1 hour before sexual activity, single subjects, Hydrochloride",2 (2×) and 1 (2×) and 6 and 3 (3×) and 4
same,time nipples remained sensitive,nipple areole complex [5]; 10% solution,3 to 4 h
same,time to increased nipple sensitivity after application,"nipple areole complex [5]; 10% solution, all subjects",≤ 30 min
same,subjects with significant change in number of SSEs from baseline,"nipple areole complex [5]; nine subjects, one week",Seven subjects reported significant change in the number of SSEs from baseline
same,adverse events,nipple areole complex [5]; one subject of nine,slightly painful nipple erection
same,persistence of sensitivity,nipple areole complex [5]; one subject with initial slightly painful nipple erection,approximately 8 hours
same,desire (modified FSFI desire domain),nipple areole complex [5]; subjects reporting increase in number of SSEs,increased desire
